Measurements: publication PMC10580953, “In vitro and intracellular activities of novel thiopeptide derivatives against macrolide-susceptible and macrolide-resistant Mycobacterium avium complex” (Microbiology Spectrum, 2023)
Converted amounts (≈) assume the structure as drawn. “Also recorded” adds a separate entry of the source.

Tests used:
[1] = Aqueous kinetic solubility; type: physicochemical; conditions: for solubility at 2 h: aqueous buffer, kinetic from dmso stock, free form, deionized water pH 7.4, 1% DMSO
Method: The aqueous kinetic solubility was determined by preparing a 20 mM DMSO stock solution of test compounds and incubating an aliquot of this solution in deionized water at pH 7.4 to set a 1% final concentration of DMSO. In the case of HCl salt compounds, 1–2 mg of compound was weighed and dissolved in deionized water to yield an approximately 10 mg/mL solution. After initial mixing using brief vortexing and sonication, samples were equilibrated by shaking for 2 h at room temperature. Suspensions or solutions with visible particles were filtered through 0.22 µm PVDF membrane filters. The dissolved drug concentration was analyzed using UPLC-MS. To determine the solubility of the HCl salt, 1 mg of compound was weighed into a 2 mL glass tube, and a fixed volume of deionized water was added to yield an approximately 10 mg/mL solution. The solution was equilibrated by shaking for 24 h at room temperature. After equilibration, the vials were visually examined. If a clear solution was obtained, solubility was reported as >mg/mL.

MAC strains = assay: MIC by REMA, summary statements for MAC strains; type: cell-based, Mycobacterium avium complex; conditions: Mycobacterium avium; range over tested MAC strains (Table 2); read-out: in vitro MIC for the tested MAC strains
M. avium in murine BMDMs = assay: Intracellular anti-MAC activity in infected BMDMs, M. avium; type: cell-based, Mycobacterium avium; conditions: M. avium ATCC 700898, 10 µg/mL, 72 hr
Method: (§1) BMDMs were obtained from 6-week-old female BALB/c mice. Bone marrow cells were differentiated into BMDMs using Dulbecco’s Modified Eagle Medium (Biowest) supplemented with 10% fetal bovine serum (Biowest) and 10% L929 cell supernatant as previously described ([58]).
(§2) BMDMs were seeded at 4 × 10^5 cells/mL in a 48-well plate and incubated overnight at 37°C. MAC strains were infected at a multiplicity of infection of 3 for 4 h and washed with DPBS twice. The cells were then cultured in the absence or presence of drugs in triplicate wells for 72 h. After incubation, the cells were lysed with 0.05% Triton X-100, and the cell lysates serially diluted with DPBS were spotted on 7H10 agar plates supplemented with OADC to count the number of viable bacteria. Colonies were enumerated after 7 d of incubation at 37°C, and the values are reported as the mean CFU ± standard deviation (SD) per mL. All experiments were repeated at least three times independently.

[2] = tested on: M. intracellulare in murine BMDMs; assay: Intracellular anti-MAC activity in infected BMDMs, M. intracellulare; type: cell-based, Mycobacterium intracellulare; conditions: M. intracellulare ATCC 13950, 10 µg/mL, 72 hr
Method: as §1, §2

MAC in murine BMDMs [3] = assay: Intracellular anti-MAC activity in infected BMDMs, summary statements for MAC; type: cell-based, Mycobacterium avium complex; conditions: for intracellular growth of MAC in BMDMs: MAC-infected BMDMs, 72 h (Fig. 2)
Method: as §1, §2

BMDMs = assay: Cell cytotoxicity test (trypan blue cell counting); type: cell-based, BALB/c mice; conditions: 20 µg/mL, overnight incubation (Fig. S4)
Method: as §1
Cell viability was evaluated using trypan blue cell counting. BMDMs were plated at 4 × 10^5 cells/mL along with antibiotics in a 48-well cell culture plate. The antibiotics were serially diluted twofold from the highest concentration of 20 μg/mL to 1.25 μg/mL. After overnight incubation at 37°C with 5% CO2, BMDMs were isolated, and viable cells were counted using trypan blue dye exclusion. Cell viability was calculated as a percentage compared to the control. All experiments were repeated at least three times independently.

M. avium = assay: MIC by resazurin microtiter assay (REMA), M. avium strains
Method: (§4) Reference strains were purchased from the American Type Culture Collection (ATCC; Manassas, VA, USA). […] All strains were cultivated in Middlebrook 7H9 liquid broth (Difco Laboratories, Detroit, MI) supplemented with 10% oleic acid-albumin-dextrose-catalase (OADC) or plated on Middlebrook 7H10 agar (Difco Laboratories) with 10% OADC enrichment at 37°C.
(§5) The MICs of all the reagents were determined using the REMA method based on guidelines by the Clinical and Laboratory Standards Institute ([57]). […] The cultures were diluted to an OD600 = 0.001 in 7H9 broth with 5% OADC. […] Two controls (broth only and bacteria only) were incubated to check for other contamination (broth only) and the growth of tested bacteria (bacteria only).

M. intracellulare = assay: MIC by resazurin microtiter assay (REMA), M. intracellulare strains
Method: as §4, §5

[4] = tested on: macrolide-resistant M. avium clinical isolates in BMDMs; assay: Intracellular activity in BMDMs, macrolide-resistant M. avium clinical isolates; type: cell-based, Mycobacterium avium; conditions: five macrolide-resistant M. avium clinical isolates, 10 µg/mL, 72 h (Fig. 5)
Method: as §1, §2

M. avium ATCC 700898 = conditions: synergism FICI ≤0.5, additive 0.5 < FICI ≤ 1, indifferent 1 < FICI ≤ 4, antagonistic FICI >4
Method: (§3) To evaluate the efficacy of the combination of agent A and agent B, a fractional inhibitory concentration (FIC) index was calculated as follows: FICI = (FIC of agent A) + (FIC of agent B) = (MIC of agent A in combination/MIC of agent A alone) + (MIC of agent B in combination/MIC of agent B alone). Synergism is defined as FICI ≤0.5, additive as 0.5 < FICI ≤ 1, indifferent as 1 < FICI ≤ 4, and antagonistic as FICI >4. The cultured bacteria were diluted to a 0.005 OD600 in 7H9 broth containing 5% OADC, and the antimicrobial agents were prepared by serial dilutions to a final concentration of 0.03–4 μg/mL. For the evaluation of inhibitory concentrations, the plates were incubated at 37°C for 5–7 d. Then, MIC values were assessed by REMA, and the FICI was calculated.

[5] = tested on: M. intracellulare ATCC 13950; conditions: synergism FICI ≤0.5, additive 0.5 < FICI ≤ 1, indifferent 1 < FICI ≤ 4, antagonistic FICI >4
Method: as §3

[6] = tested on: macrolide-resistant M. avium; assay: MIC by REMA, macrolide-resistant M. avium strains
Source text: (§6) Reference strains were purchased from the American Type Culture Collection (ATCC; Manassas, VA, USA). All clinical MAC isolates, including macrolide-susceptible and macrolide-resistant strains, were kindly provided by Samsung Medical Center (SMC; Seoul, South Korea) and Asan Medical Center (AMC; Seoul, South Korea). All strains were cultivated in Middlebrook 7H9 liquid broth (Difco Laboratories, Detroit, MI) supplemented with 10% oleic acid-albumin-dextrose-catalase (OADC) or plated on Middlebrook 7H10 agar (Difco Laboratories) with 10% OADC enrichment at 37°C.
as §5
(§7) PCR amplification and sequencing for CLR were based on 23S rRNA. The primers and PCR conditions were as reported previously ([59]). PCR was carried out in a final volume of 20 µL and contained EzPCR Basic 5 × premix (ELPIS, Daejeon, South Korea), 13 µL of sterile dH2O, 1 µL of each forward and reverse primer, and 1 µL of template DNA. The PCR products were run on 1% agarose gels and purified using a NEXprep Gel/PCR Purification Mini Kit (Geneslabs, Gyeonggi, South Korea) for DNA cleanup. Purified PCR products were sequenced by Sanger sequencing in Bionics (Seoul, South Korea) with their gene-specific forward and reverse primers. Sequences obtained from Bionics were subjected to BLAST searches to compare nucleotide sequences with reference strains.

[7] = tested on: macrolide-resistant M. intracellulare; assay: MIC by REMA, macrolide-resistant M. intracellulare strains; conditions: Mycobacterium intracellulare
Source text: as §6, §5, §7

MAC in murine BMDMs [8] = tested on: MAC in murine BMDMs; parameters: method as in PMID 33519787; conditions: cited from earlier work
[9] = Mycobacterium avium, ATCC700898
[10] = Mycobacterium intracellulare, ATCC13950, M. intracellulare (ATCC 13950), reference strain
[11] = Mycobacterium intracellulare, M. intracellulare (SMC#8)
[12] = Mycobacterium intracellulare, M. intracellulare (SMC#12)
[13] = Mycobacterium intracellulare, M. intracellulare (SMC#699)

## C/C=C(\NC(=O)c1csc(-c2csc(-c3ccc4c(n3)-c3csc(n3)[C@H]([C@@H](C)O)NC(=O)c3csc(n3)[C@H](C(C)C)NC(=O)c3csc(n3)/C(=C/C)NC(=O)[C@H]([C@@H](C)O)NC(=O)c3csc-4n3)n2)n1)C(=O)NCC(C)=O [MP2, micrococcin P2, reference compound]
[1]
  solubility at 2 h: 0.07 µg/mL (≈ 0.0613 µM)
MAC strains
  MIC: 0.125 to 0.5 µg/mL (≈ 0.109 to 0.438 µM)
M. avium in murine BMDMs
  intracellular activity (CFU) in BMDMs: ineffective
[2]
  intracellular activity (CFU) in BMDMs: ineffective
MAC in murine BMDMs [3]
  intracellular growth of MAC in BMDMs: completely abrogated
BMDMs
  Cell viability: decreased
M. avium; M. avium (SMC#6)
  MIC: 0.125 µg/mL (≈ 0.109 µM)
M. avium; M. avium (SMC#7)
  MIC: 0.125 µg/mL (≈ 0.109 µM)
M. avium; M. avium (SMC#1637)
  MIC: 0.125 µg/mL (≈ 0.109 µM)
M. avium; Mycobacterium avium
  MIC: 0.125 µg/mL (≈ 0.109 µM)
M. avium; [9]
  MIC: 0.125 µg/mL (≈ 0.109 µM)
M. intracellulare; [10]
  MIC: 0.125 µg/mL (≈ 0.109 µM)
M. intracellulare; Mycobacterium intracellulare, M. intracellulare (SMC#7)
  MIC: 0.125 µg/mL (≈ 0.109 µM)
M. intracellulare; [11]
  MIC: 0.125 µg/mL (≈ 0.109 µM)
M. intracellulare; Mycobacterium intracellulare, M. intracellulare (SMC#9)
  MIC: 0.125 µg/mL (≈ 0.109 µM)
M. intracellulare; [12]
  MIC: 0.125 µg/mL (≈ 0.109 µM)
M. intracellulare; [13]
  MIC: 0.125 µg/mL (≈ 0.109 µM)
M. intracellulare; Mycobacterium intracellulare, M. intracellulare (SMC#831)
  MIC: 0.125 µg/mL (≈ 0.109 µM)
M. intracellulare; Mycobacterium intracellulare, M. intracellulare (SMC#2087)
  MIC: 0.125 µg/mL (≈ 0.109 µM)

## C/C=C1\NC(=O)[C@H]([C@@H](C)O)NC(=O)c2csc(n2)-c2ccc(-c3nc(-c4nc(C(=O)NC5(C(=O)NCCCN6CCOCC6)CC5)cs4)cs3)nc2-c2csc(n2)[C@H]([C@@H](C)O)NC(=O)c2csc(n2)[C@H](C(C)C)NC(=O)c2csc1n2 [AJ-037]
[1]
  solubility at 2 h: 103 µg/mL (≈ 84.9 µM)
[1]; solubility of HCl salt compared to MP2
  Fold increase, HCl salt: ×71,428 fold
[1]; solubility of free form compared to MP2
  Fold increase, Free form: ×1,471 fold
[1]; thermodynamic from solid, HCl salt in deionized water
  solubility: 5000 µg/mL
MAC in murine BMDMs [3]
  intracellular growth of MAC in BMDMs: remarkably inhibited the intracellular growth of MAC to a similar degree as CLR; also recorded: significantly reduced the number of MAC CFUs inside macrophages
MAC in murine BMDMs [3]; macrolide-resistant MAC, 10 µg/mL, 72 h (Fig. 5 and 6)
  intracellular activity in BMDMs infected with macrolide-resistant MAC clinical isolates: significant decrease in CFUs
[4]
  intracellular bacterial growth in BMDMs: notably inhibited intracellular bacterial growth
M. avium ATCC 700898
  drug-drug interaction with CLR: strongest synergistic effect; also recorded: Synergistic effects
[5]
  drug-drug interaction with CLR: relatively weak but synergistic effect; also recorded: Synergistic effects
BMDMs
  Cell viability: decreased
[6]; M. avium (SMC#1216), 23S rRNA A2058/A2059 C/A
  MIC: 0.125 µg/mL (≈ 0.103 µM)
[6]; Mycobacterium avium
  MIC: 0.125 µg/mL (≈ 0.103 µM)
[6]; Mycobacterium avium, M. avium (SMC#420), 23S rRNA A2058/A2059 C/A
  MIC: 0.5 µg/mL (≈ 0.412 µM)
[6]; Mycobacterium avium, M. avium (SMC#422), 23S rRNA A2058/A2059 A/G
  MIC: 1 µg/mL (≈ 0.824 µM)
[6]; Mycobacterium avium, M. avium (SMC#1213), 23S rRNA A2058/A2059 T/A
  MIC: 0.5 µg/mL (≈ 0.412 µM)
M. avium; M. avium (SMC#7)
  MIC: 0.25 µg/mL (≈ 0.206 µM)
M. avium; Mycobacterium avium
  MIC: 0.25 µg/mL (≈ 0.206 µM)
M. avium; [9]
  MIC: 0.25 µg/mL (≈ 0.206 µM)
M. avium; Mycobacterium avium, M. avium (SMC#6)
  MIC: 0.125 µg/mL (≈ 0.103 µM)
M. avium; Mycobacterium avium, M. avium (SMC#1637)
  MIC: 0.125 µg/mL (≈ 0.103 µM)
[7]; M. intracellulare (AMC#24), 23S rRNA A2058/A2059 G/A
  MIC: 0.125 µg/mL (≈ 0.103 µM)
[7]; M. intracellulare (SMC#104), 23S rRNA A2058/A2059 G/A
  MIC: 0.125 µg/mL (≈ 0.103 µM)
[7]; M. intracellulare (SMC#414), 23S rRNA A2058/A2059 A/G
  MIC: 0.125 µg/mL (≈ 0.103 µM)
M. intracellulare; M. intracellulare (SMC#9)
  MIC: 0.125 µg/mL (≈ 0.103 µM)
M. intracellulare; M. intracellulare (SMC#831)
  MIC: 0.125 µg/mL (≈ 0.103 µM)
M. intracellulare; M. intracellulare (SMC#2087)
  MIC: 0.125 µg/mL (≈ 0.103 µM)
M. intracellulare; Mycobacterium intracellulare
  MIC: 0.125 µg/mL (≈ 0.103 µM)
M. intracellulare; [10]
  MIC: 0.25 µg/mL (≈ 0.206 µM)
M. intracellulare; [11]
  MIC: 0.25 µg/mL (≈ 0.206 µM)
M. intracellulare; [12]
  MIC: 0.25 µg/mL (≈ 0.206 µM)
M. intracellulare; [13]
  MIC: 0.25 µg/mL (≈ 0.206 µM)

## CO[C@H]1/C=C/O[C@@]2(C)Oc3c(C)c(O)c4c(O)c(c(/C=N/N5CCN(C)CC5)c(O)c4c3C2=O)NC(=O)/C(C)=C\C=C\[C@H](C)[C@H](O)[C@@H](C)[C@@H](O)[C@@H](C)[C@H](OC(C)=O)[C@@H]1C [rifampicin]
MAC in murine BMDMs [8]
  intracellular activity against MAC: little intracellular activity
